Source: patent US20240343710A1, “HETEROCYCLIC COMPOUNDS AND METHODS OF USE THEREOF” (1cBio, Inc., priority 2023, published 2024)
Where a name gives a salt, the structure may show the parent alone. Read-outs that look alike come from different tables or passages of the source.

Legend:
recombinant human PARP1 = recombinant human PARP1 (Homo sapiens, UniProt P09874); test: PARP1 fluorescence polarization binding assay; conditions: GST-tagged PARP1 20 nM, PARP1-FL probe 3 nM
Protocol: In some embodiments, the biological assay is described in the Examples herein. In some embodiments, the biological assay measures PARP-1 binding by way of fluorescence polarization measurements. In some embodiments, binding of a test compound to recombinant human PARP-1 reduces the amount of binding of a fluorescent probe, and consequently reduces the detected level of fluorescence polarization. In some test compound stock solutions are prepared in a solvent, e.g., DMSO, and are serially diluted into a range of concentrations, e.g., 15 concentrations, 14 concentrations, 13 concentrations, 12 concentrations, 11 concentrations, 10 concentrations, 9 concentrations, 8 concentrations, 7 concentrations, 6 concentrations, or 5 concentrations, by a dilution factor, e.g., a 10-fold dilution factor, a 9-fold dilution factor, an 8-fold dilution factor, a 7-fold dilution factor, a 6-fold dilution factor, a 5-fold dilution factor, a 4-fold dilution factor, a 3-fold dilution factor, or a 2-fold dilution factor. In some embodiments, the serial dilutions, e.g., 100 nL of serial dilution, 90 nL of serial dilution, 80 nL of serial dilution, 70 nL of serial dilution, 60 nL of serial dilution, 50 nL of serial dilution, 30 nL of serial dilution, 20 nL of serial dilution, or 10 nL of serial dilution, are added to a multi-welled plate, e.g., a 1536-well plate, a 384-well plate, or a 96-well plate. In some embodiments, PARP-1, e.g., GST-tagged PARP-1, is diluted in assay buffer, e.g., 50 μL of assay buffer, 40 μL of assay buffer, e.g., 30 μL of assay buffer, 20 μL of assay buffer, 10 μL of assay buffer, or 5 μL of assay buffer, and is added to the plate. In some embodiments, the plate is centrifuged, e.g., at 1000 rpm for 1 min, and incubated, e.g., incubated for 30 minutes at room temperature (RT). In some embodiments, a fluorescent probe, e.g., 10 μL of 6 nM PARP1-FL (TOCRIS, Cat #6461), is diluted in an assay buffer and is added to the plate. In some embodiments, the final concentrations of PARP-1 and fluorescent probe are 20 nM and 3 nM, respectively, in a total volume of 20 μL. In some embodiments, the plate is centrifuged, e.g., at 1000 rpm for 1 minute, and the assay plate is incubated, e.g., for 4 h at RT. In some embodiments, the samples in each well are read using a plate reader, e.g., an Envision instrument using excitation=480 nm, and emission wavelength=FITC FP-P pol 535 nm & FITC FP-S pol 535 nm). In some embodiments, percent inhibition is calculated from mP values using Inhibition (%)=[1−(mPc−mPL)/(mPH−mPL)]×100%, where mPc, mPL, and mPH are the mP values of test compound, Low controls, and High controls, respectively. In some embodiments, binding IC50 values are calculated using XLFit (equation 201: y=A+((B−A)/(1+((x/C)^D))), where A=bottom, B=top, C=IC50, and D=slope) with a floating top and bottom for curves.
Compounds of the present disclosure were tested in a PARP1 fluorescence polarization binding assay at Pharmaron (Beijing, P.R. China). In this biochemical assay, binding of test compound to recombinant human PARP1 reduces the amount of binding of a fluorescent probe, and consequently reduces the detected level of fluorescence polarization. Test compound stock solutions were prepared in DMSO and then serially diluted into 10 concentrations by 3-fold dilution in a 384-well plate using a TECAN EVO200. Alternatively, a single concentration was prepared. 60 nL of each dilution was transferred to the plate using an Echo550 (Labcyte), and then 10 μL 40 nM GST-tagged PARP1 (BPS Bioscience, Cat #80501), diluted in assay buffer (50 mM Tris pH 8.0, 0.001% Triton X-100, 10 mM MgCl2, 150 mM NaCl), was added to the plate. After a centrifugation at 1000 rpm for 1 min, the assay plate was incubated for 30 min at RT. 10 μL 6 nM PARP1-FL (TOCRIS, Cat #6461), diluted using assay buffer, was then added to the plate. The final concentrations of PARP1 and PARP1-FL were 20 nM and 3 nM, respectively, in a total volume of 20 μL. […]

[1] = tested on: DLD-1 wild-type colorectal adenocarcinoma cells; test: Cell viability assay (Cell Titer-Glo, 7 days), DLD-1 wild-type; type: cell-based; conditions: Homo sapiens, 168 h, DLD-1 wild-type cells, read-out: DLD-1 wild-type % inh at 10 μM
Source text: (§1) In some embodiments, the biological assay measures the effects that compounds of the present disclosure may have on the viability of cells, e.g., the viability of cancer cells. In some embodiments, DLD-1 wild-type and DLD-1 BRCA2(−/−) colorectal adenocarcinoma cells, an isogenic pair of cell lines differing in the presence and absence, respectively, of both BRCA2 alleles, are used to measure the effect of the disclosed compounds on the viability of cancer cells. In some embodiments, the cells are harvested during the logarithmic growth period, counted, and seeded at a specified count in the wells of a 96- or 384-well cell culture plate. In some embodiments, after seeding, the cells are incubated, e.g., at 37° C., 5% CO2 overnight. In some embodiments, the cells are treated with compounds, e.g., with serially diluted test compounds at 8-11 concentrations within a desired concentration range, e.g., from 1 nM-10 μM, for the generation of dose-response curves. In some embodiments, the plate is further incubated, e.g., for another 3-7 days in a humidified incubator at 37° C. and 5% CO2. In some embodiments, cell viability is assessed by luminescence measurement after addition of Cell Titer-Glo reagent (Promega, Madison, Wis.) according to the manufacturer's instructions. In some embodiments, cell viability IC50 values are calculated using XLFit, equation 201: y=A+((B−A)/(1+((x/C)^D))), where A=bottom, B=top, C=IC50, and D=slope. In some embodiments, the effects of the test compounds on the viability of other cell lines such as MDA-MB-436, MDA-MB-231, SUM149PT, HCC1395, and UWB1.289 are determined in an analogous method.
(§2) Compounds of the present disclosure were tested for their effects on the viability of cancer cells. DLD-1 wild-type and DLD-1 BRCA2(−/−) colorectal adenocarcinoma cells, an isogenic pair of cell lines differing in the presence and absence, respectively, of both BRCA2 alleles, were used. The cells were harvested during the logarithmic growth period, counted, and seeded at 50 cells/well for DLD-1 wild-type and 200 cells/well for DLD-1 BRCA2(−/−) in a 384-well cell culture plate. After seeding, cells were incubated at 37° C., 5% CO2 overnight. Cells were treated with serially diluted test compounds at 10 concentrations (e.g., from 1.5 nM-30 μM) for generation of dose response curves, or at a single concentration. The plate was further incubated for another 7 days in a humidified incubator at 37° C. and 5% CO2. Cell viability was assessed by luminescence measurement after addition of Cell Titer-Glo reagent (Promega, Madison, Wis.) according to the manufacturer's instructions. Cell viability IC50 values were calculated using XLFit, equation 201. y=A+((B−A)/(1+((x/C)^D))), where A=bottom, B=top, C=IC50, and D=slope. IC50 values are shown in Table B and are presented in ranges, in which “+++”<300 nM, 300 nM≤“++”<3000 nM, and “+”≥3000 nM. Values for percent inhibition at 10 μM are also shown in Table B and are presented in ranges, in which “***”≥67%, 33%: “**”≤67%, and “*”<33%. Effects of the test compounds on the viability of other cell lines such as MDA-MB-436, MDA-MB-231, SUM149PT, HCC1395, and UWB1.289 are determined in an analogous method.

recombinant human PARP2 = recombinant human PARP2 (Homo sapiens, UniProt Q9UGN5); test: PARP2 fluorescence polarization binding assay; conditions: read-out: PARP2 % inh at 10 μM
recombinant human PARP2, sequence (Q9UGN5 whole entry): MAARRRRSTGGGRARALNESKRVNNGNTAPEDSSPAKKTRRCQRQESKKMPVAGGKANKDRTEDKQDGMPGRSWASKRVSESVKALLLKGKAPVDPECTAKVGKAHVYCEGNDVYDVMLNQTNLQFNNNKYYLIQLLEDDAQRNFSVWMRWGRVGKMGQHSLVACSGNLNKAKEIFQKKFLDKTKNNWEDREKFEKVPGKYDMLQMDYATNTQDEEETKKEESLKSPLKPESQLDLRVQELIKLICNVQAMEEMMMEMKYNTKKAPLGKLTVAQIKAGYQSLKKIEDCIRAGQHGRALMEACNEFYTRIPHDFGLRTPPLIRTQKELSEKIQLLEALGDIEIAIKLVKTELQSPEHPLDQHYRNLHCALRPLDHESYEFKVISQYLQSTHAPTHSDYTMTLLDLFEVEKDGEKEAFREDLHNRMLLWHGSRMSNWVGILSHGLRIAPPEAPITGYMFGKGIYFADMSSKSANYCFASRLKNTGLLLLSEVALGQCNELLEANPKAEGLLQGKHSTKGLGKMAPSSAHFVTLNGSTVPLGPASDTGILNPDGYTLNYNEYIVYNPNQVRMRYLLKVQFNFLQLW

[2] = tested on: DLD-1 BRCA2(−/−) colorectal adenocarcinoma cells; test: Cell viability assay (Cell Titer-Glo, 7 days), DLD-1 BRCA2(−/−); type: cell-based; conditions: Homo sapiens, 168 h, DLD-1 BRCA2(−/−) cells
Source text: as §1, §2

[3] = percent inhibition at 10 μM, fluorescence polarization, GST-tagged PARP2 20 nM, PARP1-FL probe 3 nM

recombinant human PARP1, sequence (P09874 whole entry): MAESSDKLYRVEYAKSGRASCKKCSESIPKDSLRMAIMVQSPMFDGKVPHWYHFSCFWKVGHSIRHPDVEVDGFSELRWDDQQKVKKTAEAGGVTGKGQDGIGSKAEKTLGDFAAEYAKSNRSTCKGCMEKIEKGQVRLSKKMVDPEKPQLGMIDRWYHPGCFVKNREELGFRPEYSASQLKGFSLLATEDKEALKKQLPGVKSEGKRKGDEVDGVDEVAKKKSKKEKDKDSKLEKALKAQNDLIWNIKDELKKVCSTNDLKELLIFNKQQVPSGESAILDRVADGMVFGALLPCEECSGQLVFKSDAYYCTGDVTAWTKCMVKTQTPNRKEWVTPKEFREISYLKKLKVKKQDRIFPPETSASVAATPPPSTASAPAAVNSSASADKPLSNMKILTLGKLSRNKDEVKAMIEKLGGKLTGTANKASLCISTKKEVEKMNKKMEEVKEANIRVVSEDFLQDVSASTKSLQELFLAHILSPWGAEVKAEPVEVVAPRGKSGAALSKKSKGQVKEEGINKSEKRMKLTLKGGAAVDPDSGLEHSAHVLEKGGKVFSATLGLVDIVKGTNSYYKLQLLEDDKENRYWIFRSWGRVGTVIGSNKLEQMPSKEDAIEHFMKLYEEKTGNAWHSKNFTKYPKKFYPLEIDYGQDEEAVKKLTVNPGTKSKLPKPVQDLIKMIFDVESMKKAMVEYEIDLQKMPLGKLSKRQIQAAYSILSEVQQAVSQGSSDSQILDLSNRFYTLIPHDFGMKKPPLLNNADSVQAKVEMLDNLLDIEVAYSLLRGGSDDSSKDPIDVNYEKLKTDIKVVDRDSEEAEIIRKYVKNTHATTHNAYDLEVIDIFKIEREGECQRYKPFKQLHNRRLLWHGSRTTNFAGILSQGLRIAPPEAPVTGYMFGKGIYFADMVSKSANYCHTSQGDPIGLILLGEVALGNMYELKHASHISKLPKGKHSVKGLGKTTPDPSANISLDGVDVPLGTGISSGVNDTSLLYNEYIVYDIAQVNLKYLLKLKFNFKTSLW

IC50 (recombinant human PARP1)	inhibition at 10 µM (recombinant human PARP2; [3])	IC50 [2]	Structure (SMILES)	inhibition at 10 µM [1]	inhibition at 10 µM (recombinant human PARP2)
≥ 3000 nM	–	–	CCNC(=O)Nc1cc(CN2CCN(c3ccc(C(=O)NC#N)nc3C)CC2)ccn1 [Compound 3, N-cyano-5-(4-((2-(3-ethylureido)pyridin-4-yl)methyl)piperazin-1-yl)-6-methylpicolinamide dihydrochloride]	–	–
< 100 nM	< 33%	300 to 3000 nM	CCNC(=O)Nc1cc(CN2CCN(c3ccc(C(=O)CC)nc3C)CC2)ccn1 [Compound 7, 1-ethyl-3-(4-((4-(2-methyl-6-propionylpyridin-3-yl)piperazin-1-yl)methyl)pyridin-2-yl)urea]	33 to 67%	–
< 100 nM	< 33%	< 300 nM	CCNC(=O)Nc1cc(CN2CCN(c3ccc(C(=O)NC)nc3F)CC2)ccn1 [Compound 9, 5-(4-((2-(3-ethylureido)pyridin-4-yl)methyl)piperazin-1-yl)-6-fluoro-N-methylpicolinamide]	< 33%	–
< 100 nM	33 to 67%	< 300 nM	CCNC(=O)Nc1cc(CN2CCN(c3ccc(C(=O)NC)nc3C#N)CC2)ccn1 [Compound 22, 6-cyano-5-(4-((2-(3-ethylureido)pyridin-4-yl)methyl)piperazin-1-yl)-N-methylpicolinamide]	< 33%	–
< 100 nM	< 33%	< 300 nM	CCNC(=O)Nc1cc(CN2CCN(c3ccc(-n4cccn4)nc3C)CC2)ccn1 [Compound 24, 1-ethyl-3-(4-((4-(2-methyl-6-(1H-pyrazol-1-yl)pyridin-3-yl)piperazin-1-yl)methyl)pyridin-2-yl)urea]	< 33%	–
100 to 3000 nM	< 33%	≥ 3000 nM	CCNC(=O)Nc1cc(CN2CCN(c3ccc(C(=O)NC)nc3C)CC2=O)ccn1 [Compound 29, 5-(4-((2-(3-ethylureido)pyridin-4-yl)methyl)-3-oxopiperazin-1-yl)-N,6-dimethylpicolinamide]	< 33%	–
< 100 nM	< 33%	300 to 3000 nM	CCNC(=O)Nc1cc(CN2CCN(c3ccc(C(=O)NC)c(=O)n3C)CC2)ccn1 [Compound 30, 6-(4-((2-(3-ethylureido)pyridin-4-yl)methyl)piperazin-1-yl)-N,1-dimethyl-2-oxo-1,2-dihydropyridine-3-carboxamide]	< 33%	–
≥ 3000 nM	< 33%	–	CCNS(=O)(=O)Nc1cc(CN2CCN(c3ccc(C(=O)NC)nc3C)CC2)ccn1 [Compound 105, 5-(4-((2-((N-ethylsulfamoyl)amino)pyridin-4-yl)methyl)piperazin-1-yl)-N,6-dimethylpicolinamide]	–	–
< 100 nM	–	–	CCNC(=O)Nc1cc(CN2CCN(c3ccc(C(=O)NC)nc3C)CC2)no1 [Compound 279, 5-(4-((5-(3-ethylureido)isoxazol-3-yl)methyl)piperazin-1-yl)-N,6-dimethylpicolinamide]	–	–
≥ 3000 nM	–	–	CNC(=O)C(=O)Nc1cc(CN2CCN(c3ccc(C(=O)NC)nc3C)CC2)ns1 [Compound 280, N1-methyl-N2-(3-((4-(2-methyl-6-(methylcarbamoyl)pyridin-3-yl)piperazin-1-yl)methyl)isothiazol-5-yl) oxalamide formate]	–	–
< 100 nM	–	–	CCNC(=O)Nc1cc(CN2CCN(c3ccc(C(=O)NC)nc3C)CC2)n(C)n1 [Compound 281, 5-(4-((3-(3-ethylureido)-1-methyl-1H-pyrazol-5-yl)methyl)piperazin-1-yl)-N,6-dimethylpicolinamide trihydrochloride]	–	–

Structure (SMILES)	IC50 (recombinant human PARP1)	inhibition at 10 µM (recombinant human PARP2; [3])	IC50 [2]	inhibition at 10 µM [1]	inhibition at 10 µM (recombinant human PARP2)
CCNC(=O)Nc1cc(CN2CCN(c3ccc(C(=O)NC)nc3C)CC2)ccn1 [Compound 13, 5-(4-((2-(3-ethylureido)pyridin-4-yl)methyl)piperazin-1-yl)-N,6-dimethylpicolinamide formate]	< 100 nM	–	< 300 nM	< 33%	< 33%
CCNC(=O)Nc1cc(CN2CCN(c3ccc(C(=O)NC)nc3C(F)(F)F)CC2)ccn1 [Compound 21, 5-(4-((2-(3-ethylureido)pyridin-4-yl)methyl)piperazin-1-yl)-N-methyl-6-(trifluoromethyl)picolinamide trifluoroacetate]	< 100 nM	–	< 300 nM	< 33%	< 33%
